Test system: yeast genes (expressed mRNA)
Test: DNA chip measurement of expressed mRNA of yeast genes after culture with a toxic chemical substance
Type: cell-based, Saccharomyces cerevisiae S288C
Conditions: for level of expressed mRNA in the presence of chemical substance / level in the absence of chemical substance: cultured two hours with the chemical substance; for The level of expressed mRNA in the presence of chemical substance/The level of expressed mRNA in the absence of chemical substance: cultured two hours with substance
In short: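 S. cerevisiae S288C grown at 25 °C in YPD, exposed in log phase for 2 h to a toxicant at growth-inhibiting, non-lethal concentration. Cy3/Cy5-labelled cDNA from poly(A) mRNA hybridized to whole-genome chip at 65 °C >12 h. Ratio to untreated control, ≥2 significant.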

Q: Which results are given for Cl[C@H]1[C@H](Cl)[C@@H](Cl)[C@@H](Cl)[C@H](Cl)[C@H]1Cl [(7), γ-Hexachlorocyclohexane]?
A: level of expressed mRNA in the presence of chemical substance / level in the absence of chemical substance (yeast gene YNL058C): 0.7; level of expressed mRNA in the presence of chemical substance / level in the absence of chemical substance (yeast gene YNL063W): 1.4; The level of expressed mRNA in the presence of chemical substance/The level of expressed mRNA in the absence of chemical substance (yeast gene YNL074C): 1.1; The level of expressed mRNA in the presence of chemical substance/The level of expressed mRNA in the absence of chemical substance (yeast gene YNL092W): 1.6; The level of expressed mRNA in the presence of chemical substance/The level of expressed mRNA in the absence of chemical substance (yeast gene YNL115C): 2.4; The level of expressed mRNA in the presence of chemical substance/The level of expressed mRNA in the absence of chemical substance (yeast gene YNL156C): 1.9; level of expressed mRNA in the presence of chemical substance / level in the absence of chemical substance (yeast gene YNL176C): 0.7; level of expressed mRNA in the presence of chemical substance / level in the absence of chemical substance (yeast gene YNL194C): 1.5; level of expressed mRNA in the presence of chemical substance / level in the absence of chemical substance (yeast gene YNL200C): 1.2; The level of expressed mRNA in the presence of chemical substance/The level of expressed mRNA in the absence of chemical substance (yeast gene YNL234W): 1.2; level of expressed mRNA in the presence of chemical substance / level in the absence of chemical substance (yeast gene YNL253W): 1.3; level of expressed mRNA in the presence of chemical substance / level in the absence of chemical substance (yeast gene YNL276C): 0.9; The level of expressed mRNA in the presence of chemical substance/The level of expressed mRNA in the absence of chemical substance (yeast gene YNL281W): 1.2; The level of expressed mRNA in the presence of chemical substance/The level of expressed mRNA in the absence of chemical substance (yeast gene YNL305C): 1.7; level of expressed mRNA in the presence of chemical substance / level in the absence of chemical substance (yeast gene YNR051C): 1.3; The level of expressed mRNA in the presence of chemical substance/The level of expressed mRNA in the absence of chemical substance (yeast gene YNR068C): 1.8; level of expressed mRNA in the presence of chemical substance / level in the absence of chemical substance (yeast gene YOL026C): 1.8; The level of expressed mRNA in the presence of chemical substance/The level of expressed mRNA in the absence of chemical substance (yeast gene YOL032W): 1.4; The level of expressed mRNA in the presence of chemical substance/The level of expressed mRNA in the absence of chemical substance (yeast gene YOL036W): 1.0; The level of expressed mRNA in the presence of chemical substance/The level of expressed mRNA in the absence of chemical substance (yeast gene YOL047C): 1.3; The level of expressed mRNA in the presence of chemical substance/The level of expressed mRNA in the absence of chemical substance (yeast gene YOL071W): 2.0; The level of expressed mRNA in the presence of chemical substance/The level of expressed mRNA in the absence of chemical substance (yeast gene YOL082W): 2.5; The level of expressed mRNA in the presence of chemical substance/The level of expressed mRNA in the absence of chemical substance (yeast gene YOL083W): 3.1; The level of expressed mRNA in the presence of chemical substance/The level of expressed mRNA in the absence of chemical substance (yeast gene YOL117W): 1.6; The level of expressed mRNA in the presence of chemical substance/The level of expressed mRNA in the absence of chemical substance (yeast gene YOL131W): 1.3; The level of expressed mRNA in the presence of chemical substance/The level of expressed mRNA in the absence of chemical substance (yeast gene YOL150C): 2.4; The level of expressed mRNA in the presence of chemical substance/The level of expressed mRNA in the absence of chemical substance (yeast gene YOL162W): 2.0; The level of expressed mRNA in the presence of chemical substance/The level of expressed mRNA in the absence of chemical substance (yeast gene YOR019W): 2.8; level of expressed mRNA in the presence of chemical substance / level in the absence of chemical substance (yeast gene YOR022C): 1.6; level of expressed mRNA in the presence of chemical substance / level in the absence of chemical substance (yeast gene YOR087W): 0.9; level of expressed mRNA in the presence of chemical substance / level in the absence of chemical substance (yeast gene YOR138C): 1.1; The level of expressed mRNA in the presence of chemical substance/The level of expressed mRNA in the absence of chemical substance (yeast gene YOR197W): 0.9; level of expressed mRNA in the presence of chemical substance / level in the absence of chemical substance (yeast gene YOR253W): 1.3; level of expressed mRNA in the presence of chemical substance / level in the absence of chemical substance (yeast gene YOR267C): 0.9; level of expressed mRNA in the presence of chemical substance / level in the absence of chemical substance (yeast gene YOR325W): 1.2; level of expressed mRNA in the presence of chemical substance / level in the absence of chemical substance (yeast gene YPL005W): 2.0; The level of expressed mRNA in the presence of chemical substance/The level of expressed mRNA in the absence of chemical substance (yeast gene YPL087W): 4.2; level of expressed mRNA in the presence of chemical substance / level in the absence of chemical substance (yeast gene YPL150W): 1.2; level of expressed mRNA in the presence of chemical substance / level in the absence of chemical substance (yeast gene YPL152W): 1.3; level of expressed mRNA in the presence of chemical substance / level in the absence of chemical substance (yeast gene YPL168W): 1.2; level of expressed mRNA in the presence of chemical substance / level in the absence of chemical substance (yeast gene YPL180W): 1.0; level of expressed mRNA in the presence of chemical substance / level in the absence of chemical substance (yeast gene YPL188W): 1.3; The level of expressed mRNA in the presence of chemical substance/The level of expressed mRNA in the absence of chemical substance (yeast gene YPL196W): 2.4; The level of expressed mRNA in the presence of chemical substance/The level of expressed mRNA in the absence of chemical substance (yeast gene YPL206C): 1.2; level of expressed mRNA in the presence of chemical substance / level in the absence of chemical substance (yeast gene YPL221W): 1.3; The level of expressed mRNA in the presence of chemical substance/The level of expressed mRNA in the absence of chemical substance (yeast gene YPL222W): 1.1; level of expressed mRNA in the presence of chemical substance / level in the absence of chemical substance (yeast gene YPL225W): 1.7; The level of expressed mRNA in the presence of chemical substance/The level of expressed mRNA in the absence of chemical substance (yeast gene YPR023C): 1.2; level of expressed mRNA in the presence of chemical substance / level in the absence of chemical substance (yeast gene YPR049C): 1.1; level of expressed mRNA in the presence of chemical substance / level in the absence of chemical substance (yeast gene YPR146C): 1.0; level of expressed mRNA in the presence of chemical substance / level in the absence of chemical substance (yeast gene YPR148C): 1.6; The level of expressed mRNA in the presence of chemical substance/The level of expressed mRNA in the absence of chemical substance (yeast gene YPR151C): 4.4; level of expressed mRNA in the presence of chemical substance / level in the absence of chemical substance (yeast gene YPR172W): 1.2
